Measured values: patent US9121846B2, “Daikenchuto bioassay method and quality management method using same” (TSUMURA & Co., priority 2010, dated 2015)

System: Rat pancreatic cancer cell line RIN-14B
Assay: Serotonin (5-HT) release test in cultured serotonin-producing cells, 5-HT measured by EIA
Type: cell-based
Conditions: positive control, final concentration 100 μmol/L, 1 hour culture
Procedure: The crude drug mixture of the proportions presented in Table 1 was extracted by heating at 100° C. for 1 hour with purified water used in 10 times the amount of the mixture weight, and the extract was processed into a powder to obtain a Koi-free Daikenchuto extract powder. The Koi-free Daikenchuto extract powder was used to prepare a 100 mg/mL DMSO suspension, and the suspension was mixed with an 88.8 mg/mL maltose aqueous solution at a 1:9 ratio to prepare a […] Daikenchuto solution. The solution was diluted with 0.1% BSA-Hanks buffer* to make the concentration 9 mg/mL and subjected to 15-min sonication to prepare a Daikenchuto test sample.
Separately, a DMSO solution of 100 mmol/L AITC was prepared as a positive control sample by adding allyl isothiocyanate (AITC; Wako Pure Chemical Industries, Ltd.) to DMSO. […]
The plate was washed three times with a washing buffer attached to the kit (300 μL/well) to remove the free components. […] After confirming the development of color, the reaction was stopped by adding a reaction stopper ([…] and the absorbance at 405 nm was measured. The results are presented in FIG. 1.

C=CCN=C=S [AITC, allyl isothiocyanate]
5-HT concentration compared with the control: evidently higher
